This passage reports EC50 and fraction unbound results from patent US20220227762A1, “AMIDE-SUBSTITUTED IMIDAZO COMPOUNDS AS SELECTIVE INHIBITORS OF INDOLEAMINE 2,3-DIOXYGENASES” (BEIGENE, LTD., priority 2019, published 2022).

Like-named read-outs stand apart in the source and are kept apart here.

The target of one data set is T1, IDO1 (Homo sapiens, UniProt P14902).
T1 construct: endogenous in cells; host or cells: HeLa cells (American Type Culture Collection), induced with human recombinant IFN-γ
T1 sequence (P14902 whole entry): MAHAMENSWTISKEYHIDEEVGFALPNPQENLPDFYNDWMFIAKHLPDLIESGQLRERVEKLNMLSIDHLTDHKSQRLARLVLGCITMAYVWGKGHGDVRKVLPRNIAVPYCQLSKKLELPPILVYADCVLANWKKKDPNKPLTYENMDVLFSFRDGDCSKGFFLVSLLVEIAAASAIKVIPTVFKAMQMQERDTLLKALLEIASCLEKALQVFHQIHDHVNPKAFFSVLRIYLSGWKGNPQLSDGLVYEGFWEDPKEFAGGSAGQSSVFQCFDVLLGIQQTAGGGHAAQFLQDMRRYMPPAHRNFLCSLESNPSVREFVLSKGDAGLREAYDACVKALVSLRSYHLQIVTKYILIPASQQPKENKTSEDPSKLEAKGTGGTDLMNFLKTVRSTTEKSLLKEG
Put plainly: HeLa Cell-Based IDO1 Kyn (Kynurenine) Production Assay. The procedure:
HeLa Cell-Based IDO1 Kyn (Kynurenine) Production Assay:
The inhibitory activity of IDO1 inhibitors is determined by using a colorimetric reaction to measure Kyn generated from L-Trp (L-Tryptophon) oxidation by cellular IDO1 in HeLa cells after induction of IDO1 expression by IFN-γ. Hela cells were obtained from the American Type Culture Collection and recovered in 10% FBS-containing phenol red-free DMEM medium. Cells were plated onto a 96-well plate (100 μl/well) at 8000 cells per well and kept at 37° C. in a humidified incubator supplied with 5% CO2. 4 hours later, Human recombinant IFN-γ (8901SC, CST) was added to cells (final concentration 100 ng/mL) to stimulate endogenous IDO1. Compounds at different concentrations diluted in dimethylsulfoxide (DMSO) were added simultaneously with IFN-γ and 0.4 mM L-Trp. Cells were kept at 37° C. in a humidified incubator supplied with 5% CO2. After 48 hours of incubation, 100 μl supernatant from each well was removed to a new plate. The protein in the medium was precipitated with the addition of 8 μl 6N trichloroacetic acid. The plate was incubated at 60° C. for 30 minutes and then centrifugation at 2500 rpm for 10 minutes to remove sediments. 80 μl supernatants were carefully removed to a new clean plate and added with an equal volume of 2% 4-(Dimethylamino)benzaldehyde (D2004, Sigma) dissolved in glacial acetic acid. The absorbance at 480 nm wavelength derived from Kyn was measured using a PHERAstar FS plate reader (BMG LABTECH). The IC50 for each compound was derived from fitting the dose-response data to the four-parameter logistic model by using XLfit software (IDBS).

A further data set deals with plasma protein. Nature of the data set: Plasma Protein Binding Assay (equilibrium dialysis). In kind it is in vitro ADME. As to conditions: 50% plasma, Human plasma, 37° C., read-out: Plasma Protein Binding assay (fu %) Human. The protocol: Plasma Protein Binding Assay:
To evaluate the plasma protein binding extent, the bound (fb) and unbound (fu) fractions of test compound will be determined in vitro by equilibrium dialysis approach, using a 96-well dialysis device (HT Dialysis, Gales Ferry, Conn., USA). The equilibrium dialysis will be conducted in duplicate. A hundred and fifty μL of 50% plasma spiked with the test compound (final concentration of 5 μM) will be added into the donor side and 150 μL of Phosphate Buffer (PB) (0.002% Tween-80) into the corresponding receiving side. The device will be then sealed with adhesive film and shook at 80 rpm in the water bath at 37° C. for 6 h. At the end of incubation, 10 μL plasma sample will be transferred from the donor side into a 1.5 mL microcentrifuge tube, added with 90 μL PB (0.002% Tween-80), vortexed well and proteins precipitated by acetonitrile containing internal standard (IS). Ninety μL of PB (0.002% Tween-80) sample will be transferred from the receiver side into a 1.5 mL microcentrifuge tube, added with 10 μL 50% blank plasma, vortexed well and proteins precipitated by acetonitrile containing IS.
For recovery check, […] of the donor side loading samples will be aliquoted into a 1.5 mL microcentrifuge tube (in duplicate), added with 90 μL PB (0.002% Tween-80), vortexed well and proteins precipitated by acetonitrile containing IS.
For plasma stability check, 10 μL of the donor side loading samples will be aliquoted into a 1.5 mL microcentrifuge tube (in duplicate), incubated in the water bath at 37° C. for 6 h, added with 90 μL PB (0.002% Tween-80) solution at the end of the incubation, vortexed well and proteins precipitated by acetonitrile containing IS.
Appropriate LC-MS/MS methods will be developed for the analysis of the test or control compounds in the incubates.
The unbound fraction (fu) of the test compound and positive control compounds in 50% plasma will be calculated using the following equations.
Where CR is the area ratio of the test compounds to the IS in the receiving side, CD is the area ratio of the test compound to the IS in the corresponding donor side and D is the dilution factor of plasma.
(In general: In equilibrium dialysis only unbound substance equilibrates across the membrane.)

[1] abbreviates: HeLa cells, IDO1 induced by IFN-γ, 0.4 mM L-Trp, 48 hours incubation, Kyn absorbance at 480 nm, read-out: Cell-Based EC50 (nM) Hela IDO1.

`C[C@@H](c1nc2cc(C(=O)NC3CCC3)ccc2[nH]1)[C@H]1CC[C@@H](c2ccnc3ccc(F)cc32)CC1` [Example 4, N-cyclobutyl-2-((R)-1-((1s,4S)-4-(6-fluoroquinolin-4-yl)cyclohexyl)ethyl)-1H-benzo[d]imidazole-6-carboxamide]: the EC50 at IDO1 (setting [1]) was found to be 26.9 nM. For the same compound, the fraction unbound at 6 h, 5 μM in the data set on plasma protein was determined as 0.002. In the case of `C[C@H](c1nc2cnc(C(=O)NC3CC3)cc2[nH]1)[C@H]1CC[C@@H](c2ccnc3ccc(F)cc32)CC1` [Example 22a, N-cyclopropyl-2-((S)-1-((1s,4R)-4-(6-fluoroquinolin-4-yl)cyclohexyl)ethyl)-1H-imidazo[4,5-c]pyridine-6-carboxamide], the half-maximal effective concentration (EC50) at IDO1 (setting [1]) was determined as 267 nM. The fraction unbound at 6 h, 5 μM with plasma protein was found to be 0.0056.

In the case of `C[C@@H](c1nc2cc(C(=O)NC3CC3)ncc2[nH]1)[C@H]1CC[C@@H](c2ccnc3ccc(F)cc32)CC1` [Example 22b, N-cyclopropyl-2-((R)-1-((1s,4s)-4-(6-fluoroquinolin-4-yl)cyclohexyl)ethyl)-3H-imidazo[4,5-c]pyridine-6-carboxamide], on IDO1 (setting [1]), the EC50 was 0.96 nM. Besides, in the data set with plasma protein, the fraction unbound at 6 h, 5 μM worked out at 0.0047.

On to `CNC(=O)c1cc2[nH]c([C@@H](C)[C@H]3CC[C@@H](c4ccnc5ccc(F)cc54)CC3)nc2cn1` [Example 23a, 2-((S)-1-((1s,4R)-4-(6-fluoroquinolin-4-yl)cyclohexyl)ethyl)-N-methyl-1H-imidazo[4,5-c]pyridine-6-carboxamide], for which, at IDO1 (setting [1]), the EC50 turned out to be 223 nM. For the same compound, the fraction unbound at 6 h, 5 μM in the data set with plasma protein was 0.0072. For `CNC(=O)c1cc2[nH]c([C@H](C)[C@H]3CC[C@@H](c4ccnc5ccc(F)cc54)CC3)nc2cn1` [Example 23b, 2-((R)-1-((1s,4S)-4-(6-fluoroquinolin-4-yl)cyclohexyl)ethyl)-N-methyl-1H-imidazo[4,5-c]pyridine-6-carboxamide] the same measures were 3.83 nM and 0.0053.

Take `CC(c1nc2cc3c(=O)[nH]cnc3cc2[nH]1)[C@H]1CC[C@@H](c2ccnc3ccc(F)cc32)CC1` (stereo partly drawn) [Example 25, 2-(1-((1s,4s)-4-(6-fluoroquinolin-4-yl)cyclohexyl)ethyl)-3,7-dihydro-8H-imidazo[4,5-g]quinazolin-8-one]: the concentration giving a half-maximal response (EC50) at IDO1 (setting [1]) was found to be 82.4 nM. Same read-out and setting: the figure for `CCNC(=O)c1cc2nc([C@H](C)[C@H]3CC[C@@H](c4ccnc5ccc(F)cc54)CC3)[nH]c2cn1` [Example 26, N-ethyl-2-((R)-1-((1s,4S)-4-(6-fluoroquinolin-4-yl)cyclohexyl)ethyl)-3H-imidazo[4,5-c]pyridine-6-carboxamide] is 0.77 nM. For `C[C@@H](c1nc2cc(F)c(F)cc2[nH]1)[C@H]1CC[C@@H](c2ccnc3ccc(F)cc32)CC1` [Example 27b, 4-((1S,4s)-4-((R)-1-(5,6-difluoro-1H-benzo[d]imidazol-2-yl)ethyl)cyclohexyl)-6-fluoroquinoline, reference compound], the EC50 on IDO1 came out at 0.42 nM. Moreover, in the data set with plasma protein, the fraction unbound at 6 h, 5 μM was determined as 0.00034. As to `COC(=O)c1ccc2[nH]c([C@H](C)[C@H]3CC[C@@H](c4ccnc5ccc(F)cc54)CC3)nc2c1` [Example 28b, methyl 2-((R)-1-((1s,4S)-4-(6-fluoroquinolin-4-yl)cyclohexyl)ethyl)-1H-benzo[d]imidazole-5-carboxylate, reference compound], the EC50 on IDO1 (setting [1]) stood at 0.55 nM. The fraction unbound at 6 h, 5 μM in the data set on plasma protein is 0.00067. For `C[C@@H](c1nc2c(F)c(F)c(F)cc2[nH]1)[C@H]1CC[C@@H](c2ccnc3ccc(F)cc32)CC1` [Example 29, 6-fluoro-4-((1S,4s)-4-((R)-1-(4,5,6-trifluoro-1H-benzo[d]imidazol-2-yl)ethyl)cyclohexyl)quinoline, reference compound] the same measures were 0.85 nM and 0.0002.

Broadly, the EC50 is the concentration at which the effect is half-maximal.
